Assay results from US20200155579A1, “Process for Hydrating Cyclophosphamide Freeze-Dried Composition and Product Thereof” (priority 2018, published 2020).

Key:
[1] = CPP content determination (HPLC); format: physicochemical; conditions: raw material, initial
Protocol: Preparation of sample stock solution (1 mg/ml anhydrous Cyclophosphamide): an appropriate amount of water is charged into sample bottle with shaking until complete dissolution of the sample, which is transferred to 500 ml volumetric flask. The sample bottle is washed with pure water to ensure complete transfer of all samples into the volumetric flask. The volumetric flask is metered into calibration and shaken for homogeneity.
Preparation of sample solution (0.5 mg/ml anhydrous Cyclophosphamide): 25 ml of sample stock solution and 5.0 ml of internal control solution (precisely weighed 185 mg of ethyl p-hydroxybenzoate control is dissolved in 1000 ml volumetric flask, to which is added 250 ml of ethanol. After shaking for dissolution, pure water is used to meter to calibration with shaking) are charged in 50 ml volumetric flask, which is metered with pure water to calibration with shaking and then used for HPLC analysis.

[2] = Stability in 40° C./75% RH stability test chamber (CPP content); format: physicochemical; conditions: raw material
Protocol: The CPP freeze-dried composition hydrated for 16 h was placed in 40° C./75% RH stability test chamber, was sampled after 1 month and 3 months, and determined for CPP contents, which were compared with CPP monohydrate obtained by prior art hydrating process.
The CPP freeze-dried composition hydrated for 16 h was placed in 40° C./75% RH stability test chamber, sampled after 1 month and 3 months for determining CPP contents.

[3] = raw material
Protocol: The moisture content, CPP content and redissolving time were determined for CPP freeze-dried composition hydrated with saturated sodium chloride solution in the freeze-drying box, respectively. In addition, the CPP freeze-dried compositions hydrated for 16 h and 24 h were placed in 45° C. oven and sampled for determining CPP contents after 1 week and 2 weeks, respectively.
Moisture content, CPP content and redissolving time were determined for CPP freeze-dried composition hydrated with saturated sodium chloride solution in the dryer, respectively. In addition, the CPP freeze-dried composition hydrated for 16 h was placed in 45° C. oven, sampled after 1 week and 2 weeks, respectively and determined for CPP contents. The CPP freeze-dried composition hydrated for 16 h was placed in 40° C./75% RH stability test chamber, was sampled after 1 month and 3 months, and determined for CPP contents, which were compared with CPP monohydrate obtained by prior art hydrating process.
The moisture content, CPP content and redissolving time were determined for CPP freeze-dried composition hydrated with saturated potassium sulfate solution in the dryer, respectively. In addition, the CPP freeze-dried composition hydrated for 16 h was placed in 45° C. oven and was sampled for determining CPP contents after 1 week and 2 weeks, respectively. […]

[4] = Bulk density (USP <616> Method I); format: physicochemical; conditions: active ingredient; strength NA, hydration solution NA
Protocol: BD is calculated by the following formula: […]
W is the theoretical weight, g;
V0 is the macroscopic volume, mL.
V0 is calculated by the following formula: […]
D is the theoretical inside diameter, cm;

[5] = Tapped density (USP <616> Method I); format: physicochemical; conditions: active ingredient; strength NA, hydration solution NA
[6] = Skeletal density (gas pycnometer); format: physicochemical; conditions: active ingredient; strength NA, hydration solution NA
Protocol: Skeletal Density, also known as true density, is determined at room temperature by Gas Pycnometer (Micromeritics Accupyc II 1340). Skeletal density is calculated by the following formula: […]
V1 is the true volume of the test sample, measured by Gas Pycnometer, mL.

[7] = Porosity (calculated from bulk and skeletal density); format: physicochemical; conditions: active ingredient; strength NA, hydration solution NA
Protocol: The porosity is calculated with the macroscopic volume (V0) & true volume (V1) or the bulk density (ρ0) & skeletal density (ρ1) by the following formula: […]

[8] = Reconstitution time (0.9% sodium chloride injection, cyclotron 250 rpm); format: physicochemical; conditions: active ingredient
Protocol: Then the glass vial is placed on cyclotron (HY-5, Shanghai Suhao intelligent system Co. Ltd) which makes the glass vial oscillate at 250 rpm at room temperature to dissolve the active ingredient completely. The reconstitution time is recorded in Table 20.

[9] = format: physicochemical; conditions: air dispersion/dry model; hydration pressure 50 kPa
Protocol: The hydrated CPP freeze-dried composition is stirred by weighting scoop gently until flowable powder comes into being. Then 1-2 g test sample is added on injection plate. Test method and parameters are as follows:
It will be understood by a person of ordinary skill in the art that a common approach to defining the distribution width is to cite three values on the x-axis, the D10, D50, and D90. As used herein, the term “D50” refers to the median particle diameter, wherein half of the particle population has a diameter below such value. As used herein, the term “D90,” refers to the particle diameter wherein 90% of the particle population has a diameter below such value. As used herein, the term “D10,” refers to the particle diameter wherein 10% of the particle population has a diameter below such value.

[10] = general description; cited from earlier work

SMILES | CPP content % [1] [%] | Stability-CPP content % 40° C./75% RH-1 month [2] [%] | Stability-CPP content % 40° C./75% RH-3 month [2] [%] | Stability-CPP content % 45° C.-1 week [3] [%] | Stability-CPP content % 45° C.-2 week [3] [%] | Bulk Density [4] [g/mL] | Tapped Density [5] [g/mL] | Skeletal Density [6] [g/mL] | Porosity [7] [%] | Reconstitution time ([8]; strength 0.5 g) [min] | Reconstitution time ([8]; strength 1 g) [min] | Reconstitution time ([8]; strength 2 g) [min] | D10 [9] [μm] | D50 [9] [μm] | D90 [9] [μm] | Solubility [10]
O=P1(N(CCCl)CCCl)NCCCO1 (stereo not drawn) [CPP monohydrate raw material, P-[N,N-bis(β-chloroethyl)]-1-oxa-3-aza-2-phosphocyclohexane-P-oxide] | 99.6 | 98.9 | 86.1 | 106.1 | 101.8 |  |  |  |  |  |  |  |  |  |  | 
O=P1(N(CCCl)CCCl)NCCCO1 (stereo not drawn) [P-[N,N-bis(β-chloroethyl)]-1-oxa-3-aza-2-phosphocyclohexane-P-oxide] |  |  |  |  |  | 0.6246 | 0.9369 | 1.4286 | 56.28 | 8.7 | 11.2 | 16.4 | 5.6 | 34.8 | 262.0 | soluble in water, normal saline or ethanol
